Data from PubChem BioAssay (NCI).
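Results reflect a 48-hour exposure of cells in 96-well plates to compound at five concentrations. TGI: concentration producing complete growth inhibition.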

system: 786-0 renal; test: inhibition of tumour cell growth, NCI panel, 48 h

SMILES	TGI [µM]
CCC(C)(C)/C(CC(O)(C(F)(F)F)C(F)(F)F)=N\O	> 100
N#CSC#Cc1ccc(C#CSC#N)cc1	33.5
Cc1cc(C)c(S(=O)(=O)N2CCCN(S(=O)(=O)c3c(C)cc(C)cc3C)OCCCON(S(=O)(=O)c3c(C)cc(C)cc3C)CCCN(S(=O)(=O)c3c(C)cc(C)cc3C)OCCCO2)c(C)c1	> 100
CC(C)C1OC23CCCCC2C(C#N)(C#N)C1(C#N)C(=N)O3 (stereo not given)	34.4
O=C(CC(=O)Nc1cccc(C(=O)O)c1)Nc1cccc(C(=O)O)c1	> 100
O=C(NCCCCCCNC(=O)c1cccc2ccccc12)Nc1cccc2ccccc12	> 100

system: A498 renal; test: inhibition of tumour cell growth, NCI panel, 48 h

SMILES	TGI [µM]
CCC(C)(C)/C(CC(O)(C(F)(F)F)C(F)(F)F)=N\O	> 100
N#CSC#Cc1ccc(C#CSC#N)cc1	36.8
CC(C)C1OC23CCCCC2C(C#N)(C#N)C1(C#N)C(=N)O3 (stereo not given)	60
O=C(CC(=O)Nc1cccc(C(=O)O)c1)Nc1cccc(C(=O)O)c1	> 100
O=C(NCCCCCCNC(=O)c1cccc2ccccc12)Nc1cccc2ccccc12	> 100

system: A549 NSCLC; test: inhibition of tumour cell growth, NCI panel, 48 h

SMILES	TGI [µM]
CCC(C)(C)/C(CC(O)(C(F)(F)F)C(F)(F)F)=N\O	> 100
N#CSC#Cc1ccc(C#CSC#N)cc1	33.7
Cc1cc(C)c(S(=O)(=O)N2CCCN(S(=O)(=O)c3c(C)cc(C)cc3C)OCCCON(S(=O)(=O)c3c(C)cc(C)cc3C)CCCN(S(=O)(=O)c3c(C)cc(C)cc3C)OCCCO2)c(C)c1	> 100
CC(C)C1OC23CCCCC2C(C#N)(C#N)C1(C#N)C(=N)O3 (stereo not given)	> 100
NC(CCCCP(=O)(O)O)C(=O)O (stereo not given)	> 100
O=C(CC(=O)Nc1cccc(C(=O)O)c1)Nc1cccc(C(=O)O)c1	> 100
O=C(NCCCCCCNC(=O)c1cccc2ccccc12)Nc1cccc2ccccc12	> 100

system: ACHN renal; test: inhibition of tumour cell growth, NCI panel, 48 h

SMILES	TGI [µM]
CCC(C)(C)/C(CC(O)(C(F)(F)F)C(F)(F)F)=N\O	> 100
N#CSC#Cc1ccc(C#CSC#N)cc1	30.1
Cc1cc(C)c(S(=O)(=O)N2CCCN(S(=O)(=O)c3c(C)cc(C)cc3C)OCCCON(S(=O)(=O)c3c(C)cc(C)cc3C)CCCN(S(=O)(=O)c3c(C)cc(C)cc3C)OCCCO2)c(C)c1	> 100
CC(C)C1OC23CCCCC2C(C#N)(C#N)C1(C#N)C(=N)O3 (stereo not given)	> 100
NC(CCCCP(=O)(O)O)C(=O)O (stereo not given)	> 100
O=C(CC(=O)Nc1cccc(C(=O)O)c1)Nc1cccc(C(=O)O)c1	> 100
O=C(NCCCCCCNC(=O)c1cccc2ccccc12)Nc1cccc2ccccc12	> 100

system: BT-549 breast; test: inhibition of tumour cell growth, NCI panel, 48 h

SMILES	TGI [µM]
N#CSC#Cc1ccc(C#CSC#N)cc1	32.4
Cc1cc(C)c(S(=O)(=O)N2CCCN(S(=O)(=O)c3c(C)cc(C)cc3C)OCCCON(S(=O)(=O)c3c(C)cc(C)cc3C)CCCN(S(=O)(=O)c3c(C)cc(C)cc3C)OCCCO2)c(C)c1	> 100
CC(C)C1OC23CCCCC2C(C#N)(C#N)C1(C#N)C(=N)O3 (stereo not given)	39.8
NC(CCCCP(=O)(O)O)C(=O)O (stereo not given)	> 100
O=C(CC(=O)Nc1cccc(C(=O)O)c1)Nc1cccc(C(=O)O)c1	> 100
O=C(NCCCCCCNC(=O)c1cccc2ccccc12)Nc1cccc2ccccc12	> 100

system: CAKI-1 renal; test: inhibition of tumour cell growth, NCI panel, 48 h

SMILES	TGI [µM]
CCC(C)(C)/C(CC(O)(C(F)(F)F)C(F)(F)F)=N\O	> 100
N#CSC#Cc1ccc(C#CSC#N)cc1	31.6
Cc1cc(C)c(S(=O)(=O)N2CCCN(S(=O)(=O)c3c(C)cc(C)cc3C)OCCCON(S(=O)(=O)c3c(C)cc(C)cc3C)CCCN(S(=O)(=O)c3c(C)cc(C)cc3C)OCCCO2)c(C)c1	> 100
CC(C)C1OC23CCCCC2C(C#N)(C#N)C1(C#N)C(=N)O3 (stereo not given)	22.4
NC(CCCCP(=O)(O)O)C(=O)O (stereo not given)	> 100
O=C(CC(=O)Nc1cccc(C(=O)O)c1)Nc1cccc(C(=O)O)c1	> 100
O=C(NCCCCCCNC(=O)c1cccc2ccccc12)Nc1cccc2ccccc12	> 100

system: CCRF-CEM leukemia; test: inhibition of tumour cell growth, NCI panel, 48 h

SMILES	TGI [µM]
CCC(C)(C)/C(CC(O)(C(F)(F)F)C(F)(F)F)=N\O	> 100
N#CSC#Cc1ccc(C#CSC#N)cc1	> 100
Cc1cc(C)c(S(=O)(=O)N2CCCN(S(=O)(=O)c3c(C)cc(C)cc3C)OCCCON(S(=O)(=O)c3c(C)cc(C)cc3C)CCCN(S(=O)(=O)c3c(C)cc(C)cc3C)OCCCO2)c(C)c1	> 100
CC(C)C1OC23CCCCC2C(C#N)(C#N)C1(C#N)C(=N)O3 (stereo not given)	> 100
NC(CCCCP(=O)(O)O)C(=O)O (stereo not given)	> 100
O=C(CC(=O)Nc1cccc(C(=O)O)c1)Nc1cccc(C(=O)O)c1	> 100
O=C(NCCCCCCNC(=O)c1cccc2ccccc12)Nc1cccc2ccccc12	> 100

system: COLO 205 colon; test: inhibition of tumour cell growth, NCI panel, 48 h

SMILES	TGI [µM]
CCC(C)(C)/C(CC(O)(C(F)(F)F)C(F)(F)F)=N\O	> 100
N#CSC#Cc1ccc(C#CSC#N)cc1	34.6
Cc1cc(C)c(S(=O)(=O)N2CCCN(S(=O)(=O)c3c(C)cc(C)cc3C)OCCCON(S(=O)(=O)c3c(C)cc(C)cc3C)CCCN(S(=O)(=O)c3c(C)cc(C)cc3C)OCCCO2)c(C)c1	> 100
CC(C)C1OC23CCCCC2C(C#N)(C#N)C1(C#N)C(=N)O3 (stereo not given)	33.5
NC(CCCCP(=O)(O)O)C(=O)O (stereo not given)	> 100
O=C(CC(=O)Nc1cccc(C(=O)O)c1)Nc1cccc(C(=O)O)c1	> 100
O=C(NCCCCCCNC(=O)c1cccc2ccccc12)Nc1cccc2ccccc12	> 100

system: DU-145 prostate; test: inhibition of tumour cell growth, NCI panel, 48 h

SMILES	TGI [µM]
CCC(C)(C)/C(CC(O)(C(F)(F)F)C(F)(F)F)=N\O	> 100
N#CSC#Cc1ccc(C#CSC#N)cc1	28.3
Cc1cc(C)c(S(=O)(=O)N2CCCN(S(=O)(=O)c3c(C)cc(C)cc3C)OCCCON(S(=O)(=O)c3c(C)cc(C)cc3C)CCCN(S(=O)(=O)c3c(C)cc(C)cc3C)OCCCO2)c(C)c1	> 100
CC(C)C1OC23CCCCC2C(C#N)(C#N)C1(C#N)C(=N)O3 (stereo not given)	94.8
NC(CCCCP(=O)(O)O)C(=O)O (stereo not given)	> 100
O=C(CC(=O)Nc1cccc(C(=O)O)c1)Nc1cccc(C(=O)O)c1	> 100
O=C(NCCCCCCNC(=O)c1cccc2ccccc12)Nc1cccc2ccccc12	> 100

system: EKVX NSCLC; test: inhibition of tumour cell growth, NCI panel, 48 h

SMILES	TGI [µM]
CCC(C)(C)/C(CC(O)(C(F)(F)F)C(F)(F)F)=N\O	> 100
N#CSC#Cc1ccc(C#CSC#N)cc1	37.2
Cc1cc(C)c(S(=O)(=O)N2CCCN(S(=O)(=O)c3c(C)cc(C)cc3C)OCCCON(S(=O)(=O)c3c(C)cc(C)cc3C)CCCN(S(=O)(=O)c3c(C)cc(C)cc3C)OCCCO2)c(C)c1	> 100
CC(C)C1OC23CCCCC2C(C#N)(C#N)C1(C#N)C(=N)O3 (stereo not given)	77.7
NC(CCCCP(=O)(O)O)C(=O)O (stereo not given)	> 100
O=C(CC(=O)Nc1cccc(C(=O)O)c1)Nc1cccc(C(=O)O)c1	> 100
O=C(NCCCCCCNC(=O)c1cccc2ccccc12)Nc1cccc2ccccc12	> 100

system: HCC-2998 colon; test: inhibition of tumour cell growth, NCI panel, 48 h

SMILES	TGI [µM]
CCC(C)(C)/C(CC(O)(C(F)(F)F)C(F)(F)F)=N\O	> 100
N#CSC#Cc1ccc(C#CSC#N)cc1	34.3
Cc1cc(C)c(S(=O)(=O)N2CCCN(S(=O)(=O)c3c(C)cc(C)cc3C)OCCCON(S(=O)(=O)c3c(C)cc(C)cc3C)CCCN(S(=O)(=O)c3c(C)cc(C)cc3C)OCCCO2)c(C)c1	> 100
CC(C)C1OC23CCCCC2C(C#N)(C#N)C1(C#N)C(=N)O3 (stereo not given)	29.6
NC(CCCCP(=O)(O)O)C(=O)O (stereo not given)	> 100
O=C(CC(=O)Nc1cccc(C(=O)O)c1)Nc1cccc(C(=O)O)c1	> 100
O=C(NCCCCCCNC(=O)c1cccc2ccccc12)Nc1cccc2ccccc12	> 100

system: HCT-116 colon; test: inhibition of tumour cell growth, NCI panel, 48 h

SMILES	TGI [µM]
CCC(C)(C)/C(CC(O)(C(F)(F)F)C(F)(F)F)=N\O	> 100
N#CSC#Cc1ccc(C#CSC#N)cc1	38.7
Cc1cc(C)c(S(=O)(=O)N2CCCN(S(=O)(=O)c3c(C)cc(C)cc3C)OCCCON(S(=O)(=O)c3c(C)cc(C)cc3C)CCCN(S(=O)(=O)c3c(C)cc(C)cc3C)OCCCO2)c(C)c1	> 100
CC(C)C1OC23CCCCC2C(C#N)(C#N)C1(C#N)C(=N)O3 (stereo not given)	39.8
NC(CCCCP(=O)(O)O)C(=O)O (stereo not given)	> 100
O=C(CC(=O)Nc1cccc(C(=O)O)c1)Nc1cccc(C(=O)O)c1	> 100
O=C(NCCCCCCNC(=O)c1cccc2ccccc12)Nc1cccc2ccccc12	> 100

system: HCT-15 colon; test: inhibition of tumour cell growth, NCI panel, 48 h

SMILES	TGI [µM]
CCC(C)(C)/C(CC(O)(C(F)(F)F)C(F)(F)F)=N\O	> 100
N#CSC#Cc1ccc(C#CSC#N)cc1	38
Cc1cc(C)c(S(=O)(=O)N2CCCN(S(=O)(=O)c3c(C)cc(C)cc3C)OCCCON(S(=O)(=O)c3c(C)cc(C)cc3C)CCCN(S(=O)(=O)c3c(C)cc(C)cc3C)OCCCO2)c(C)c1	> 100
CC(C)C1OC23CCCCC2C(C#N)(C#N)C1(C#N)C(=N)O3 (stereo not given)	23.5
NC(CCCCP(=O)(O)O)C(=O)O (stereo not given)	> 100
O=C(CC(=O)Nc1cccc(C(=O)O)c1)Nc1cccc(C(=O)O)c1	> 100
O=C(NCCCCCCNC(=O)c1cccc2ccccc12)Nc1cccc2ccccc12	> 100

system: HL-60(TB) leukemia; test: inhibition of tumour cell growth, NCI panel, 48 h

SMILES	TGI [µM]
CCC(C)(C)/C(CC(O)(C(F)(F)F)C(F)(F)F)=N\O	> 100
N#CSC#Cc1ccc(C#CSC#N)cc1	> 100
Cc1cc(C)c(S(=O)(=O)N2CCCN(S(=O)(=O)c3c(C)cc(C)cc3C)OCCCON(S(=O)(=O)c3c(C)cc(C)cc3C)CCCN(S(=O)(=O)c3c(C)cc(C)cc3C)OCCCO2)c(C)c1	> 100
CC(C)C1OC23CCCCC2C(C#N)(C#N)C1(C#N)C(=N)O3 (stereo not given)	30.8
NC(CCCCP(=O)(O)O)C(=O)O (stereo not given)	> 100
O=C(CC(=O)Nc1cccc(C(=O)O)c1)Nc1cccc(C(=O)O)c1	> 100
O=C(NCCCCCCNC(=O)c1cccc2ccccc12)Nc1cccc2ccccc12	> 100

system: HOP-62 NSCLC; test: inhibition of tumour cell growth, NCI panel, 48 h

SMILES	TGI [µM]
CCC(C)(C)/C(CC(O)(C(F)(F)F)C(F)(F)F)=N\O	> 100
